In patent US11447445B2, “Diabetes and metabolic syndrome treatment with a novel dual modulator of soluble epoxide hydrolase and peroxisome proliferator-activated receptors” (priority 2015, dated 2022):
Values after ≈ are worked out from the molar mass of the structure shown. Where two headings read alike, the source gives them in different places.

Legend:
[1] = target: T1, PPARα (Homo sapiens, UniProt Q07869); format: cell-based
T1 construct: expressed in transfected cells; host or cells: COS-7
T1 sequence (Q07869 239-466): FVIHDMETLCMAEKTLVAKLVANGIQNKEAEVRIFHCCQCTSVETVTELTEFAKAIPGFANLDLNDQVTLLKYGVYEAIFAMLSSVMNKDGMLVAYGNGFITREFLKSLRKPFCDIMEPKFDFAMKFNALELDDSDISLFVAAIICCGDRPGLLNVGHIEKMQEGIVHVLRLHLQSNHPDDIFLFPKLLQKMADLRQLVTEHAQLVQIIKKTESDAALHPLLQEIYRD

[2] = target: T2, PPARδ (Homo sapiens, UniProt Q03181); assay: PPAR transactivation assay in COS-7 cells (Gal4-hPPAR-LBD, luciferase); format: cell-based
T2 construct: expressed in transfected cells; host or cells: COS-7
T2 sequence (Q03181 211-439): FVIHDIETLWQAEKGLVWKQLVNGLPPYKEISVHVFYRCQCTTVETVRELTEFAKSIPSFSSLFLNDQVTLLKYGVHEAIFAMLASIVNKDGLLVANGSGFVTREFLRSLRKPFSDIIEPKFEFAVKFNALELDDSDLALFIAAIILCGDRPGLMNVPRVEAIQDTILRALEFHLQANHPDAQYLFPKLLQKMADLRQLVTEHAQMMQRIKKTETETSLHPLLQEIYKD

[3] = target: T3, recombinant human sEH (Homo sapiens, UniProt P34913); assay: biochemical
T3 sequence (P34913 1-555): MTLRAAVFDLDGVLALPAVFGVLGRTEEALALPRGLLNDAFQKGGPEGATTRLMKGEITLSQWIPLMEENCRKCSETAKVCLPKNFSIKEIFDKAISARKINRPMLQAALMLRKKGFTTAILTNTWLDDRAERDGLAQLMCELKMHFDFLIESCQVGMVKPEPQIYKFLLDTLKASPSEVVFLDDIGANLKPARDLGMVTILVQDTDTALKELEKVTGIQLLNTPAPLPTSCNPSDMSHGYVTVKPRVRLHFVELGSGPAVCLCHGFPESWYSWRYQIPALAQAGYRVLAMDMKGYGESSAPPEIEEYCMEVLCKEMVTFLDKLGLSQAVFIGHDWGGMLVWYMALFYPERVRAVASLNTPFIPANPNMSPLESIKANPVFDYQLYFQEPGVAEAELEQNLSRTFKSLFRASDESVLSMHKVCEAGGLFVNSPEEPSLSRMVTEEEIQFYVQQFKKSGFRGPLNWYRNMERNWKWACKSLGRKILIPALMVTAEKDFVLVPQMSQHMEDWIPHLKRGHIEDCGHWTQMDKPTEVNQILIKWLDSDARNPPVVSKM

[4] = target: T4, PPARγ (Homo sapiens, UniProt P37231); assay: cell-based; format: cell-based; conditions: for activation at 10 µM: COS-7, read-out: PPARγ activation @10 μM, at 10 μM, compared to pioglitazone 1 μM; for EC50 PPARγ: i.a. = inactive
T4 construct: expressed in transfected cells; host or cells: COS-7
T4 sequence (P37231 238-503): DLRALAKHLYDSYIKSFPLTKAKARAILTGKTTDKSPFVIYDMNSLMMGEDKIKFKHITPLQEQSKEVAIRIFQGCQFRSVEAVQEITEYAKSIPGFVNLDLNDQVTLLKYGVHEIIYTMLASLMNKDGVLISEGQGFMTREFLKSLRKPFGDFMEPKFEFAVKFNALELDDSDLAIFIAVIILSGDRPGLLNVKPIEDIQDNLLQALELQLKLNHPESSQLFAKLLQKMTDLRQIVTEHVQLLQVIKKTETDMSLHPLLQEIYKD
Method: COS-7 cells (PPAR) were grown in DMEM high glucose, supplemented with 10% fetal calf serum (FCS), 1% sodium pyruvate (SP) and 1% penicillin/streptomycin (PS) at 37° C. and 5% CO2. Used plasmids for PPAR transactivation assay are shown under supporting informations.
The day before transfection, COS-7 cells were seeded in 96-well plates with a density of 30,000 cells per well. Transient transfection was carried out using Lipofectamine LTX reagent (Invitrogen, Carlsbad, Calif., USA) according to the manufacturer's protocol with pFR-Luc (Stratagene), pRL-SV40 (Promega) and the Ga14-fusion receptor plasmids (pFA-CMV-hPPAR-LBD) of the respective PPAR subtype. 5 h after transfection, medium was changed to DMEM without phenol red and 10% FCS, supplemented with 1% SP, 1% PS and 1% L-glutamine, now additionally containing 0.1% DMSO and the respective test compound or 0.1% DMSO alone as untreated control. Each concentration was tested in triplicate wells and each experiment was repeated independently at least three times. Following overnight incubation with the test compounds, cells were assayed for luciferase activity using Dual-Glo™ Luciferase Assay System (Promega) according to the manufacturer's protocol. Luminescence was measured with an Infinite m200 luminometer (Tecan Deutschland GmbH). Each concentration of the compounds was tested in triplicate wells. Normalization for transfection efficacy and cell growth was done by division of the firefly luciferase data by renilla luciferase data resulting in relative light units. Activation factors were obtained by dividing by DMSO control. […] All compounds were evaluated by comparison of the achieved maximum effect to that of the reference compound (pioglitazone for PPARγ, GW7647 for PPARa, and L165041 for PPARS each with 1 μM). Data are expressed as mean±SE; n≥3.
The Gal4-fusion receptor plasmids pFA-CMV-PPARa-LBD, pFA-CMV-PPARS-LBD and pFA-CMV-PPARγ-LBD containing the hinge region and ligand binding domain (LBD) for each of the PPAR subtypes, respectively, were constructed by integrating cDNA fragments obtained from PCR amplification of human monocytes into the SmaI/XbaI cleavage site of the pFA-CMV vector (Stratagene, La Jolla, Calif., USA) and have already been published. […] Frame and sequence of the fusion receptors were verified by sequencing. pFR-Luc (Stratagene) was used as reporter plasmid and pRL-SV40 (Promega) for normalization of transfection efficacy and cell growth.

[5] = Water solubility approximation; format: physicochemical; conditions: PBS with 0.01% Polysorbate 20, aqueous with cosolvent or surfactant or cyclodextrin, kinetic from dmso stock; PBS pH 7.4, 0.01% Polysorbate 20, 1% DMSO; precipitation at 650 nm; read-out: w.s. (water solubility)
Method: PBS at pH 7.4 with 0.01% Polysorbate 20 (Tween) was combined with 1% of a DMSO solution of the inquired compound in a 96-well transparent flat bottom microtiter plate. Precipitation of the compound was measured at 650 nm with a Tecan Infinite 200 (Tecan Group Ltd, Mannedorf, Switzerland).

[6] = tested on: 3T3-L1 fibroblasts; assay: Adipocyte differentiation of murine 3T3-L1 cells (Oil Red O staining); format: cell-based; conditions: 1c 1-10 μM; CIU 10 μM
Method: 3T3-L1 cells were subcultured in DMEM containing 10% newborn calf serum in a humidified atmosphere at 37° C., 5% CO2. […] Briefly, cells were seeded in 6-well plates (2.5×10^6/well). Differentiation was started at day 3 by addition of 1 μg/ml insulin, 0.25 dexamethasone and 0.5 mM isobutylmethylxanthine in DMEM supplemented with 10% fetal calf serum. At day 5 medium was replaced by medium containing only insulin for 2 more days. After this, cells were kept for lipid droplet accumulation in basal medium without additions until day 15.

[7] = tested on: human primary preadipocytes; assay: Adipocyte differentiation of human primary preadipocytes (Oil Red O staining); format: cell-based; conditions: 1c 1-10 μM; CIU 10 μM
Method: Human primary preadipocytes were obtained from stromal vascular fraction of subcutaneous fat from anonymous donors undergoing elective cosmetic surgery. Adipose tissue was digested by collagenase solution (0.3 U/ml in 1% BSA/PBS) for 45 min at 37° C. with constant shaking. Floating mature adipocytes were removed and the pellet containing the stromal vascular fraction was resuspended in erythrocyte lysis buffer. […] After 4 days the medium was changed to 3FC medium (QuickDiff medium without dexamethasone, IBMX and rosiglitazone). Adipocytes were cultured for additional 14 days before medium was changed to basal medium consisting of DMEM/Ham's F12 with biotin and panthotenate. This investigation conforms to the ethical principles outlined in the Declaration of Helsinki and was approved by the university ethics committee (Ethik-Kommission des Fachbereichs Medizin der Goethe-Universitat Frankfurt am Main). Total RNA was isolated using PeqGold RNAPure (Peqlab) according to manufacturer's instructions and was transcribed to cDNA using Maxima First Strand cDNA synthesis kit (Thermo Scientific), following manufacturer's instructions. Quantitative PCR was performed with iQ SYBR green Supermix (Bio-Rad) using a CFX96 (Bio-Rad) system. Expression was normalized to actin RNA.

[8] = after p.o. 30 mg/kg bw of 1b, all time points
Method: Blood was sampled 15 min, 30 min, 1 h, 2 h, 4 h and 8 h after test item application and only 8 h after vehicle application. Each drug treated mouse was sampled twice (0.25 and 0.5 h, 1 and 2 h, 4 and 8 h) via retro orbital puncture. Blood was collected in tubes containing lithium-heparin, stored on ice and subsequently centrifuged at 6000 rpm for 10 minutes at 4° C. (Heraeus biofuge fresco). The plasma was prepared within 45 min after sampling and kept at −20° C. until being assayed. For further kinetic and dynamic analysis the tissues (brain, liver, abdominal fat) were collected 30 min, 2h and 8 h post dose, after the second plasma sampling of each drug treated mouse. Tissue of the vehicle group was sampled only once, 8 h post dose. A volume of 40 μl acetonitrile containing the internal standard (300 ng/ml Diazepam) was added to 20 μl of mouse plasma sample, plasma calibration standard and plasma QC samples. Samples were vigorously shaken and centrifuged for 10 minutes at 6000 g and 20° C. The particle free supernatant was diluted 1:1 with water. An aliquot was transferred to 200 μl sampler vials and subsequently subjected to LC MS with an injection volume of 20 pl. The brain samples were homogenized in PBS (1+1, w/v) using the Precellys 24/Dual homogenizer. A volume of 20 μl of the brain homogenate was mixed (1+1 v/v/) with 20 μl mouse blank plasma. Then 80 μl acetonitrile containing the internal standard (300 ng/ml Diazepam) were added. Samples were vigorously shaken and centrifuged for 10 minutes at 6000 g and 20° C. The particle free supernatant was diluted 1:1 with water. An aliquot was transferred to 200 μl sampler vials and subsequently subjected to LC MS with an injection volume of 20 μl. Mass spectrometry was performed on a TSQ Quantum Discovery Max triple quadrupole mass spectrometer equipped with an electrospray (ESI) interface (Thermo Fisher Scientific, USA) connected to a PC running the standard software Xcalibur 2.0.7. […]

[9] = read-out: sEH IC50 / inhibitory potency (unit inferred)

O=C(O)c1ccc(-c2ccc(C(=O)NCc3ccccc3C(F)(F)F)cc2)cc1 [Compound 25]
EC50 PPARα [1]: i.a. | EC50 PPARδ [2]: i.a. | IC50 ([3]; read-out: IC50 sEH (converted)): 170 nM | activation at 10 µM [4]: ~30% | solubility [5]: 5 µM (≈ 2 µg/mL)

O=C(NCc1ccccc1C(F)(F)F)c1ccc(-c2nnn[nH]2)cc1 [Compound 28, [N-(2-(Trifluoromethyl)benzyl)benzamid]-4-(1H-tetrazole)]
EC50 PPARα ([1]; i.a. = inactive): i.a. | EC50 PPARδ ([2]; i.a. = inactive): i.a. | IC50 ([3]; read-out: IC50 sEH (converted)): 5000 nM | EC50 PPARγ [4]: i.a. | solubility [5]: 500 µM (≈ 174 µg/mL)

O=C(Nc1ccc(I)cc1)NC1CCCCC1 [CIU, N-cyclohexyl-N′-iodophenyl urea, reference compound]
adipocyte differentiation (Oil-Red O) [6]: able to start adipocyte differentiation | adipocyte differentiation (Oil-Red O) [7]: not able to start differentiation

N#Cc1ccc(C(=O)NCc2ccccc2C(F)(F)F)cc1 [Compound 27, 4-Cyano-N-(2-(trifluoromethyl)benzyl)benzamide]
EC50 PPARα ([1]; i.a. = inactive): remained unaffected | EC50 PPARδ ([2]; i.a. = inactive): remained unaffected | IC50 [3, 9]: 64 nM | EC50 PPARγ [4]: remained unaffected

CCOC(=O)C(CC)Cc1ccc(C(=O)NCc2ccccc2C(F)(F)F)cc1 (stereo not drawn) [Compound 1b, Ethyl 2-ethyl 3-[4-(N-((2-trifluoromethyl)benzyl)benzamide)]propanoate]
EC50 PPARα ([1]; i.a. = inactive): i.a. | EC50 PPARδ ([2]; i.a. = inactive): i.a. | IC50 ([3]; read-out: IC50 sEH (converted)): 44 ± 5 nM | 1b in plasma [8]: not detected

CON(C)C(=O)C1CC1c1ccc(C(=O)NCc2ccccc2C(F)(F)F)cc1 (stereo not drawn) [Compound 21, N-Methoxy-N-methyl 3-[4-(N-((2-trifluoromethyl)benzyl)benzamide)]cyclopropanecarboxamide]
EC50 PPARα ([1]; i.a. = inactive): i.a. | EC50 PPARδ ([2]; i.a. = inactive): i.a. | sEH IC50 / inhibitory potency (unit not given) [3]: double-digit nanomolar range | IC50 ([3]; read-out: IC50 sEH (converted)): 80 ± 4 nM | activation at 10 µM [4]: 30%

O=C(O)c1cccc(-c2ccc(C(=O)NCc3ccccc3C(F)(F)F)cc2)c1 [Compound 26]
EC50 PPARα [1]: i.a. | EC50 PPARδ [2]: i.a. | IC50 [3, 9]: 1000 nM | activation at 10 µM [4]: ~30%

CCOC(=O)C(CC)Cc1ccc(C(=O)NCc2ccccc2Br)cc1 (stereo not drawn) [Compound 5b, Ethyl 2-ethyl 3-[4-(N-((2-bromo)benzyl)benzamide)]propanoate]
EC50 PPARα ([1]; i.a. = inactive): n.t. i.a. i.a. n.t. | EC50 PPARδ ([2]; i.a. = inactive): n.t. i.a. i.a. n.t. | EC50 PPARγ [4]: i.a. | solubility [5]: 25 µM (≈ 10.5 µg/mL)
